target: T1, a4b7 integrin interaction with MadCAM-1 (Homo sapiens, UniProt P13612+P26010); assay: a4b7 Cell Capture Assay (RPMI8866 cells on MAdCAM-1 Fc coated plates); assay type: cell-based; settings: 50% human serum, 1 mM MgCl2, 1 hour incubation, CellTiter-Glo luminescence, read-out: a4B7 cell capture assay RMPI8866-MadCAM EC50
T1 construct: capture of a4b7 integrin expressing cells, RPMI8866; endogenous in cells; host or cells: RPMI8866
T1 sequence (P13612 34-1032): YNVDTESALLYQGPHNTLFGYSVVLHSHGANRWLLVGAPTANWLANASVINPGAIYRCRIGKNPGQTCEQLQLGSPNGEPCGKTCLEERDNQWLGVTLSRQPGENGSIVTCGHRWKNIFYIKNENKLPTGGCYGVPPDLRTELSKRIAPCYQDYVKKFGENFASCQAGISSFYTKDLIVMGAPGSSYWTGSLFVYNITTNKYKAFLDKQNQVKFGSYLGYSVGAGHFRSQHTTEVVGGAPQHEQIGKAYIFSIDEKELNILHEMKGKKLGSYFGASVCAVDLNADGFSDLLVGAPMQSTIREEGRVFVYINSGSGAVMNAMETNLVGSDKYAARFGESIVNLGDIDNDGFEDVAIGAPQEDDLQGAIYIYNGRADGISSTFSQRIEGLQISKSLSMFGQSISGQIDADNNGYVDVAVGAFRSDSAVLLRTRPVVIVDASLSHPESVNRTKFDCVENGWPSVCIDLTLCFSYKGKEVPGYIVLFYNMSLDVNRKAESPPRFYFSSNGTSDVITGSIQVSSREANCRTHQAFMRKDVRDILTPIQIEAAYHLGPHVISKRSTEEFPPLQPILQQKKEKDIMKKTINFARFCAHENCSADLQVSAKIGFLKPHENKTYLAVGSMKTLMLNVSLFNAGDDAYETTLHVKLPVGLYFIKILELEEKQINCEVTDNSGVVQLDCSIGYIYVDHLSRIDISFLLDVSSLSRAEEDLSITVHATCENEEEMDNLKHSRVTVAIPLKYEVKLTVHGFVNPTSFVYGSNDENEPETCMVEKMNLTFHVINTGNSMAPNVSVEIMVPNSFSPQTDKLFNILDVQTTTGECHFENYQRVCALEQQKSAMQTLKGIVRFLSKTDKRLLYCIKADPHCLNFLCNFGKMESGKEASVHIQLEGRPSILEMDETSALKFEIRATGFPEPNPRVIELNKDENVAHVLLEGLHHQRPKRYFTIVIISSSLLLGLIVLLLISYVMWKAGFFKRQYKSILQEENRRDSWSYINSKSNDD
T1 sequence (P26010 20-798): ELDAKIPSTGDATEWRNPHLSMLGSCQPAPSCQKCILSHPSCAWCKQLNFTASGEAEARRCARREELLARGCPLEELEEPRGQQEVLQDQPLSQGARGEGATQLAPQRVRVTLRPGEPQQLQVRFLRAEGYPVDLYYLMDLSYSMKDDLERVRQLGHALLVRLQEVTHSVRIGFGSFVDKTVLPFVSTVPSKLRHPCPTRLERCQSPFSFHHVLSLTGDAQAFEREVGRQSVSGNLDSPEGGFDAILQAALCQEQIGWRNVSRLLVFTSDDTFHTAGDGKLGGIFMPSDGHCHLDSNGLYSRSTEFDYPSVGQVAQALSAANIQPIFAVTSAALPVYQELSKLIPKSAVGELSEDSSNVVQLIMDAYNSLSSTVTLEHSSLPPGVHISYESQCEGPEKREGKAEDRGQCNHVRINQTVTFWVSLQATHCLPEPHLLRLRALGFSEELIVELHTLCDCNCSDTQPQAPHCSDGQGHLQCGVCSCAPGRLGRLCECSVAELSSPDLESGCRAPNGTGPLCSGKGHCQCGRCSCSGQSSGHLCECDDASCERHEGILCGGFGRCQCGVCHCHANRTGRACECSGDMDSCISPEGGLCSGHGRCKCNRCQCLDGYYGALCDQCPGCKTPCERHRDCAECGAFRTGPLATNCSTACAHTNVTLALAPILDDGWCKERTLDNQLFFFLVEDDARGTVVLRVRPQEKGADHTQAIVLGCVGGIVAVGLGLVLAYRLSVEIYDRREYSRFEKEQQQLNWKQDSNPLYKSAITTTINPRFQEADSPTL
Summary of the method: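 RPMI8866 cells (1.0×10^6 cells/mL) in 1 mM MgCl2, 25 mM HEPES, 50% human serum were added to plates coated with human MAdCAM-1–IgG1 Fc (1.0 μg/mL) and exposed to compound (9-point, 0.08–1000 nM, 0.1% DMSO) for 1 h at 37 °C. Bound cells were read by CellTiter-Glo luminescence. IC50 came from 4-parameter fit of normalized % inhibition.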

Structure (SMILES) | EC50 [nM]
Cc1cc2cc(c1F)[C@H](CC(=O)O)NC(=O)[C@@H](n1cc(CCN3CC(F)C3)c(C(F)(F)F)cc1=O)c1cc(ccc1F)Oc1cccc(C(F)(F)F)c1-2 (relative stereo) [Example 28, [(14R*,17S)-12,19-difluoro-14-{5-[2-(3-fluoroazetidin-1-yl)ethyl]-2-oxo-4-(trifluoromethyl)pyridin-1-yl}-20-methyl-15-oxo-3-(trifluoromethyl)-8-oxa-16-azatetracyclo[16.3.1.1^{9,13}.0^{2,7}]tricosa-1(22),2(7),3,5,9,11,13(23),18,20-nonaen-17-yl]acetic acid] | 19
Cc1cccc2c1-c1cc(c(F)c(C(F)(F)F)c1)[C@H](CC(=O)O)NC(=O)[C@@H](n1cc(CCN3CC(F)C3)c(C(F)(F)F)cc1=O)c1cccc(c1)O2 (relative stereo) [Example 6, rel-2-((5S,8S)-14-fluoro-5-(5-(2-(3-fluoroazetidin-1-yl)ethyl)-2-oxo-4-(trifluoromethyl)pyridin-1(2H)-yl)-26-methyl-6-oxo-15-(trifluoromethyl)-3-oxa-7-aza-1,4(1,3),2(1,2)-tribenzenacyclooctaphane-8-yl)acetic acid] | 230
Cc1cccc2c1-c1cc(C3CC3)c(F)c(c1)[C@H](CC(=O)O)NC(=O)[C@@H](n1ccc(C(F)(F)F)cc1=O)c1cc(ccc1F)O2 (single isomer, unassigned) [Example 73] | 27
Cc1ccc(C)c2c1Oc1cccc(c1)[C@H](n1cc(CCN3CC(F)C3)c(C(F)(F)F)cc1=O)C(=O)N[C@@H](CC(=O)O)c1cc-2cc(C(F)(F)F)c1F (relative stereo) [Example 12, [(14R*,17S)-19-fluoro-14-{5-[2-(3-fluoroazetidin-1-yl)ethyl]-2-oxo-4-(trifluoromethyl)pyridin-1-yl}-3,6-dimethyl-15-oxo-20-(trifluoromethyl)-8-oxa-16-azatetracyclo[16.3.1.1^{9,13}.0^{2,7}]tricosa-1(22),2(7),3,5,9,11,13(23),18,20-nonaen-17-yl]acetic acid] | 970
Cc1cccc2c1-c1cc(F)c(F)c(c1)[C@H](CC(=O)O)NC(=O)[C@@H](n1cc(CCN3CC(F)C3)c(C(F)(F)F)cc1=O)c1cc(ccc1F)O2 (relative stereo) [Example 31, [(14R*,17S)-12,19,20-trifluoro-14-{5-[2-(3-fluoroazetidin-1-yl)ethyl]-2-oxo-4-(trifluoromethyl)pyridin-1-yl}-3-methyl-15-oxo-8-oxa-16-azatetracyclo[16.3.1.1^{9,13}.0^{2,7}]tricosa-1(22),2(7),3,5,9,11,13(23),18,20-nonaen-17-yl]acetic acid] | 1.9
Cc1cc2cc(c1F)[C@H](CC(=O)O)NC(=O)[C@@H](n1cc(CCN3CC(F)C3)c(C(F)(F)F)cc1=O)c1cc(ccc1F)Oc1cc(C(F)(F)F)cc(C)c1-2 (single isomer, unassigned) [Example 64] | 6.4
Cc1cc2cc(c1F)[C@H](CC(=O)O)NC(=O)[C@@H](n1cc(CCN3CC(F)C3)c(C(F)(F)F)cc1=O)c1cc(ccc1F)COc1cc(Cl)cc(C)c1-2 (single isomer, unassigned) [Example 47] | 42
Cc1cc2cc(c1F)[C@H](CC(=O)O)NC(=O)[C@@H](n1cc(CCN3CC(F)C3)c(C(F)(F)F)cc1=O)c1cc(ccc1Cl)COc1cccc(C)c1-2 (single isomer, unassigned) [Example 58] | 7
Cc1cccc2c1-c1ccc(F)c(c1)[C@H](CC(=O)O)NC(=O)[C@@H](n1cc(CCN3CC(F)C3)c(C(F)(F)F)cc1=O)c1cc(ccc1F)O2 [Example 32, 2-((5S,8S)-1^4,4^4-difluoro-5-(5-(2-(3-fluoroazetidin-1-yl)ethyl)-2-oxo-4-(trifluoromethyl)pyridin-1(2H)-yl)-2^6-methyl-6-oxo-3-oxa-7-aza-1,4(1,3),2(1,2)-tribenzenacyclooctaphane-8-yl)acetic acid] | 0.95
